Several values for one entry are separate records, joined by “and”; a condition that tells them apart may be missing. Equal values may be shown once.
Biological target: T1, mut-GVHH PmIleRS2 (Priestia megaterium, UniProt A0A0B6AVD3, G56H/H54G)
T1 sequence (A0A0B6AVD3 1-1032 H54G/G56H): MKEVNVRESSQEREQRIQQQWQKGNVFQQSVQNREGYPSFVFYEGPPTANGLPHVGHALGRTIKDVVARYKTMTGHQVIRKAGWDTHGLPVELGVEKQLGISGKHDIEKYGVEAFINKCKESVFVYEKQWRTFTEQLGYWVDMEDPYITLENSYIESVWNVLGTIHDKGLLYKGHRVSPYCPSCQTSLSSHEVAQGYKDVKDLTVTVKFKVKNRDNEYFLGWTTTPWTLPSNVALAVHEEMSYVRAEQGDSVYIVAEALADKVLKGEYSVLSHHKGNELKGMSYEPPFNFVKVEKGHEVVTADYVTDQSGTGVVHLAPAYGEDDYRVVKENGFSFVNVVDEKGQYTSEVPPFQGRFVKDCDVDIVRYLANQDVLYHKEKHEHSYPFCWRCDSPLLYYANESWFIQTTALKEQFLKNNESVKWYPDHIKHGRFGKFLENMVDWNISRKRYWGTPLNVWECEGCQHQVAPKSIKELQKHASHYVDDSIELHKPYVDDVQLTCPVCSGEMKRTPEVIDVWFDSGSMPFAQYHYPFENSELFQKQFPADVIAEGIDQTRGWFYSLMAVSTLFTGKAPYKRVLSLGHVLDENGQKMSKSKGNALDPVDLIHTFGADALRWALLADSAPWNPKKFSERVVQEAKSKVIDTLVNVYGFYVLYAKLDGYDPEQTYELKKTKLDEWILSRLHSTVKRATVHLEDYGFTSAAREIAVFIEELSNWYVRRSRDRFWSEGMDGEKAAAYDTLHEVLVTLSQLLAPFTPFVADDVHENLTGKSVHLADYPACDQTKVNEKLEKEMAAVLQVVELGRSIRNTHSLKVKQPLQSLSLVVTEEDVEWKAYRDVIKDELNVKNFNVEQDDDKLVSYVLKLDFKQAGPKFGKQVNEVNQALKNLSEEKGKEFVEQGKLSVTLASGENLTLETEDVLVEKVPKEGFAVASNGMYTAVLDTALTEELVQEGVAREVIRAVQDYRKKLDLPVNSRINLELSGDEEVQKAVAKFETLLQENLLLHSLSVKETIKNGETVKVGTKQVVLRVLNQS
Assay: ATP-PPi exchange assay, mupirocin inhibition of amino acid activation
Format: biochemical, Priestia (Bacillus) megaterium
Procedure: L-Ile and ATP concentrations ranged from 1/10 KM to 10 KM values. When measuring the KI towards one of the substrates, the other was held in saturation (concentrations at least 10 KM). The aliquots of the reaction mixture (1–2.5 μl) were quenched in 2 volumes of 500 mM NaOAc pH = 4.5, 0.1% SDS, and formed ^32P-ATP was separated from the remaining ^32P-PPi by thin-layer chromatography on Polygram CEL 300 PEI UV254 TLC plates (Macherey-Nagel, cat: 801063) using 750 mM KH2PO4 pH=3.5, 4 M urea buffer. Visualization and quantification of the signals was performed using a Typhoon Phosphoimager 5 (General Electric) and accompanying ImageQuant™ TL software (SV: 10.2). The kinetic constants were determined using a global fit option of the competitive inhibition model of GraphPad Prism 6 software (SV: 6.01). All experiments were performed in triplicates. The kcat was determined by dividing the maximal velocity, VM, with the used enzyme concentration. […]
variable substrate (ATP or Ile) was varied in the range of 0.1 KM to 10 KM. The other substrate (Ile or ATP) was kept in excess at 5 to 10 KM. Data were globally fitted to the competitive inhibition model using GraphPad prism 6.01 for Windows software. The values represent the average value ± SD of three independent experiments. Source data are provided as a Source Data file.

Compound C/C(=C\C(=O)OCCCCCCCCC(=O)O)C[C@@H]1OC[C@H](C[C@@H]2O[C@H]2[C@@H](C)[C@H](C)O)[C@@H](O)[C@H]1O [mupirocin] has a vo (c (mupirocin) = 5.0 mM, c (Ile) 250.0 μM, Replica 3) of 0.00839 mM/min, a vo (c (mupirocin) = 5.0 mM, c (Ile) 500.0 μM, Replica 1) of 0.01582 mM/min and a vo (c (mupirocin) = 5.0 mM, c (Ile) 500.0 μM, Replica 2) of 0.01771 mM/min. For the same compound, the vo (c (mupirocin) = 5.0 mM, c (Ile) 500.0 μM, Replica 3) was 0.01671 mM/min, the vo (c (mupirocin) = 5.0 mM, c (Ile) 1000.0 μM, Replica 1) was 0.02937 mM/min and the vo (c (mupirocin) = 5.0 mM, c (Ile) 1000.0 μM, Replica 2) was 0.03008 mM/min. For the same compound, the vo (c (mupirocin) = 5.0 mM, c (Ile) 1000.0 μM, Replica 3) was 0.02918 mM/min, the vo (c (mupirocin) = 5.0 mM, c (Ile) 1500.0 μM, Replica 1) was 0.03962 mM/min and the vo (c (mupirocin) = 5.0 mM, c (Ile) 1500.0 μM, Replica 2) was 0.03913 mM/min. It also gave a vo (c (mupirocin) = 5.0 mM, c (Ile) 1500.0 μM, Replica 3) of 0.04025 mM/min, a vo (c (mupirocin) = 10.0 mM, c (Ile) 100.0 μM, Replica 1) of 0.00192 mM/min and a vo (c (mupirocin) = 10.0 mM, c (Ile) 100.0 μM, Replica 2) of 0.00188 mM/min. It also gave a vo (c (mupirocin) = 10.0 mM, c (Ile) 100.0 μM, Replica 3) of 0.00205 mM/min, a vo (c (mupirocin) = 10.0 mM, c (Ile) 250.0 μM, Replica 1) of 0.00384 mM/min and a vo (c (mupirocin) = 10.0 mM, c (Ile) 250.0 μM, Replica 2) of 0.00477 mM/min. For the same compound, the vo (c (mupirocin) = 10.0 mM, c (Ile) 250.0 μM, Replica 3) was 0.00429 mM/min, the vo (c (mupirocin) = 10.0 mM, c (Ile) 500.0 μM, Replica 1) was 0.00975 mM/min and the vo (c (mupirocin) = 10.0 mM, c (Ile) 500.0 μM, Replica 2) was 0.01055 mM/min. For the same compound, the vo (c (mupirocin) = 10.0 mM, c (Ile) 500.0 μM, Replica 3) was 0.01023 mM/min, the vo (c (mupirocin) = 10.0 mM, c (Ile) 1000.0 μM, Replica 1) was 0.01549 mM/min and the vo (c (mupirocin) = 10.0 mM, c (Ile) 1000.0 μM, Replica 2) was 0.01681 mM/min. The vo (c (mupirocin) = 10.0 mM, c (Ile) 1000.0 μM, Replica 3) was 0.01726 mM/min, the vo (c (mupirocin) = 10.0 mM, c (Ile) 1500.0 μM, Replica 1) was 0.02248 mM/min and the vo (c (mupirocin) = 10.0 mM, c (Ile) 1500.0 μM, Replica 2) was 0.02398 mM/min. The vo (c (mupirocin) = 10.0 mM, c (Ile) 1500.0 μM, Replica 3) was 0.02428 mM/min, the initial velocity vo (c(mupirocin) 0.5 mM, c(ATP) 0.5 mM) was 0.00635 mM/min and 0.00811 mM/min and the initial velocity vo (c(mupirocin) 0.5 mM, c(ATP) 1.0 mM) was 0.01441 mM/min and 0.01486 mM/min and 0.01387 mM/min. For the same compound, the initial velocity vo (c(mupirocin) 0.5 mM, c(ATP) 2.5 mM) was 0.03283 mM/min and 0.03264 mM/min and 0.03523 mM/min, the initial velocity vo (c(mupirocin) 0.5 mM, c(ATP) 5.0 mM) was 0.05375 mM/min and 0.05359 mM/min and 0.05506 mM/min and the initial velocity vo (c(mupirocin) 0.5 mM, c(ATP) 10.0 mM) was 0.07349 mM/min and 0.07632 mM/min and 0.07609 mM/min. The initial velocity vo (c(mupirocin) 0.5 mM, c(ATP) 20.0 mM) was 0.09482 mM/min and 0.09569 mM/min and 0.09403 mM/min, the initial velocity vo (c(mupirocin) 0.5 mM, c(Ile) 50.0 μM) was 0.00742 mM/min and 0.00851 mM/min and 0.00786 mM/min and the initial velocity vo (c(mupirocin) 1.0 mM, c(ATP) 0.5 mM) was 0.00716 mM/min and 0.0055 mM/min and 0.00625 mM/min. The initial velocity vo (c(mupirocin) 1.0 mM, c(ATP) 1.0 mM) was 0.01194 mM/min and 0.01202 mM/min and 0.01221 mM/min, the initial velocity vo (c(mupirocin) 1.0 mM, c(ATP) 2.5 mM) was 0.0252 mM/min and 0.02429 mM/min and 0.02403 mM/min and the initial velocity vo (c(mupirocin) 1.0 mM, c(ATP) 5.0 mM) was 0.04205 mM/min and 0.0434 mM/min and 0.0426 mM/min. For the same compound, the initial velocity vo (c(mupirocin) 1.0 mM, c(ATP) 10.0 mM) was 0.06359 mM/min and 0.06579 mM/min and 0.06457 mM/min, the initial velocity vo (c(mupirocin) 1.0 mM, c(ATP) 20.0 mM) was 0.08534 mM/min and 0.08763 mM/min and 0.08559 mM/min and the initial velocity vo (c(mupirocin) 1.0 mM, c(Ile) 50.0 μM) was 0.00713 mM/min and 0.00706 mM/min and 0.00704 mM/min. For the same compound, the initial velocity vo (c(mupirocin) 2.5 mM, c(ATP) 1.0 mM) was 0.00558 mM/min and 0.0055 mM/min and 0.00551 mM/min, the initial velocity vo (c(mupirocin) 2.5 mM, c(ATP) 2.5 mM) was 0.01306 mM/min and 0.01742 mM/min and 0.01281 mM/min and the initial velocity vo (c(mupirocin) 2.5 mM, c(ATP) 5.0 mM) was 0.02499 mM/min and 0.026 mM/min and 0.02496 mM/min. The initial velocity vo (c(mupirocin) 2.5 mM, c(ATP) 10.0 mM) was 0.04221 mM/min and 0.04045 mM/min and 0.04296 mM/min, the initial velocity vo (c(mupirocin) 2.5 mM, c(ATP) 20.0 mM) was 0.05896 mM/min and 0.06416 mM/min and 0.05964 mM/min and the initial velocity vo (c(mupirocin) 2.5 mM, c(Ile) 50.0 μM) was 0.00279 mM/min and 0.00348 mM/min and 0.00209 mM/min. The initial velocity vo (c(mupirocin) 5.0 mM, c(ATP) 0.5 mM) was 0.00206 mM/min and 0.00219 mM/min and 0.0025 mM/min, the initial velocity vo (c(mupirocin) 5.0 mM, c(ATP) 1.0 mM) was 0.00362 mM/min and 0.00342 mM/min and 0.00337 mM/min and the initial velocity vo (c(mupirocin) 5.0 mM, c(ATP) 2.5 mM) was 0.00795 mM/min and 0.00842 mM/min and 0.00825 mM/min. The initial velocity vo (c(mupirocin) 5.0 mM, c(ATP) 5.0 mM) was 0.01509 mM/min and 0.0154 mM/min and 0.01576 mM/min, the initial velocity vo (c(mupirocin) 5.0 mM, c(ATP) 10.0 mM) was 0.02771 mM/min and 0.02665 mM/min and 0.0265 mM/min and the initial velocity vo (c(mupirocin) 5.0 mM, c(ATP) 20.0 mM) was 0.04308 mM/min and 0.04226 mM/min. The initial velocity vo (c(mupirocin) 5.0 mM, c(Ile) 50.0 μM) was 0.00223 mM/min and 0.00239 mM/min and 0.00197 mM/min and the initial velocity vo (c(mupirocin) 10.0 mM, c(Ile) 50.0 μM) was 0.00094 mM/min and 0.00075 mM/min and 0.00127 mM/min.

From article PMC10485003, “Antibiotic hyper-resistance in a class I aminoacyl-tRNA synthetase with altered active site signature motif” (Nature Communications, 2023)
